What all share (format): functional
The test system of assay [1] is MDA-MB-435. The experiment in a line: Growth inhibition of human MDA-MB-435 cells assessed as cell growth at 100 uM incubated for 48 hrs by sulforhodamine B assay relative to control. The note with it: MDA-MB-435, 48 h, read-out: Activity. (In SRB staining, fixed cells bind dye roughly in proportion to their protein.)
Another assay concerns SN12C. Kind of assay: Growth inhibition of human SN12C cells assessed as cell growth at 0.1 uM incubated for 48 hrs by sulforhodamine B assay relative to control. The note with it: read-out: Activity.
Another assay has as its system SNB-19. Kind of assay: Growth inhibition of human SNB19 cells assessed as cell growth at 10 uM incubated for 48 hrs by sulforhodamine B assay relative to control. Conditions: SNB-19, 48 h, read-out: Activity.
Assay [2] relates to SNB-75. Kind of assay: Growth inhibition of human SNB75 cells assessed as cell growth at 1 uM incubated for 48 hrs by sulforhodamine B assay relative to control. Conditions: SNB-75, 48 h, read-out: Activity.
Another assay concerns ACHN. The experiment in a line: Growth inhibition of human ACHN cells assessed as cell growth at 0.01 uM incubated for 48 hrs by sulforhodamine B assay relative to control. The note with it: read-out: Activity.
A further assay concerns NCI-H460. The experiment in a line: Growth inhibition of human NCI-H460 cells assessed as cell growth at 0.1 uM incubated for 48 hrs by sulforhodamine B assay relative to control. Conditions: NCI-H460, 48 h, read-out: Activity.
Assay [3] deals with CCRF-CEM. The experiment in a line: Growth inhibition of human CCRF-CEM cells assessed as cell growth at 0.01 uM incubated for 48 hrs by sulforhodamine B assay relative to control. The note with it: read-out: Activity.
Assay [4] deals with NCI-H322M. The experiment in a line: Growth inhibition of human NCI-H322M cells assessed as cell growth at 10 uM incubated for 48 hrs by sulforhodamine B assay relative to control. The note with it: read-out: Activity.
In assay [5] the test system is SNB-75. The experiment in a line: Growth inhibition of human SNB75 cells assessed as cell growth at 10 uM incubated for 48 hrs by sulforhodamine B assay relative to control. The note with it: SNB-75, 48 h, read-out: Activity.
Another assay deals with DU-145. The experiment in a line: Growth inhibition of human DU145 cells assessed as cell growth at 1 uM incubated for 48 hrs by sulforhodamine B assay relative to control. The note with it: DU-145, 48 h, read-out: Activity.
For the next assay, the system named is UACC-257. Kind of assay: Growth inhibition of human UACC257 cells assessed as cell growth at 1 uM incubated for 48 hrs by sulforhodamine B assay relative to control. Conditions: UACC-257, 48 h, read-out: Activity.
The test system of assay [6] is SF-539. Kind of assay: Growth inhibition of human SF539 cells assessed as cell growth at 0.01 uM incubated for 48 hrs by sulforhodamine B assay relative to control. Conditions: SF-539, 48 h, read-out: Activity.
In a further assay the test system is NCI-H226. Kind of assay: Growth inhibition of human NCI-H226 cells assessed as cell growth at 100 uM incubated for 48 hrs by sulforhodamine B assay relative to control. Conditions: NCI-H226, 48 h, read-out: Activity.
The subject of the next assay is OVCAR-4. The experiment in a line: Growth inhibition of human OVCAR4 cells assessed as cell growth at 1 uM incubated for 48 hrs by sulforhodamine B assay relative to control. The note with it: OVCAR-4, 48 h, read-out: Activity.
Assay [7] deals with HCT-15. The experiment in a line: Growth inhibition of human HCT15 cells assessed as cell growth at 0.01 uM incubated for 48 hrs by sulforhodamine B assay relative to control. Conditions: HCT-15, 48 h, read-out: Activity.
For assay [8], the system named is OVCAR-5. The experiment in a line: Growth inhibition of human OVCAR5 cells assessed as cell growth at 100 uM incubated for 48 hrs by sulforhodamine B assay relative to control. The note with it: OVCAR-5, 48 h, read-out: Activity.
In another assay the test system is SK-MEL-5. The experiment in a line: Growth inhibition of human SK-MEL-5 cells assessed as cell growth at 10 uM incubated for 48 hrs by sulforhodamine B assay relative to control. The note with it: SK-MEL-5, 48 h, read-out: Activity.
The test system of the next assay is NCI-H522. The experiment in a line: Growth inhibition of human NCI-H522 cells assessed as cell growth at 10 uM incubated for 48 hrs by sulforhodamine B assay relative to control. The note with it: NCI-H522, 48 h, read-out: Activity.
For assay [9], the system named is NCI-H322M. The experiment in a line: Growth inhibition of human NCI-H322M cells assessed as cell growth at 0.3 uM incubated for 48 hrs by sulforhodamine B assay relative to control. The note with it: read-out: Activity.
A further assay deals with OVCAR-8. Kind of assay: Growth inhibition of human OVCAR8 cells assessed as cell growth at 30 uM incubated for 48 hrs by sulforhodamine B assay relative to control. Conditions: OVCAR-8, 48 h, read-out: Activity.
The subject of assay [10] is CCRF-CEM. Kind of assay: Growth inhibition of human CCRF-CEM cells assessed as cell growth at 30 uM incubated for 48 hrs by sulforhodamine B assay relative to control. Conditions: read-out: Activity.
In another assay the test system is M14. Kind of assay: Growth inhibition of human M14 cells assessed as cell growth at 30 uM incubated for 48 hrs by sulforhodamine B assay relative to control. The note with it: M14, 48 h, read-out: Activity.
Another assay relates to NCI-H23. Kind of assay: Growth inhibition of human NCI-H23 cells assessed as cell growth at 0.3 uM incubated for 48 hrs by sulforhodamine B assay relative to control. Conditions: NCI-H23, 48 h, read-out: Activity.
Assay [11] deals with RXF 393. Kind of assay: Growth inhibition of human RXF393 cells assessed as cell growth at 0.3 uM incubated for 48 hrs by sulforhodamine B assay relative to control. The note with it: RXF 393, 48 h, read-out: Activity.
The next assay deals with SR. Kind of assay: Growth inhibition of human SR cells assessed as cell growth at 30 uM incubated for 48 hrs by sulforhodamine B assay relative to control. The note with it: read-out: Activity.
The subject of a further assay is HOP-92. The experiment in a line: Growth inhibition of human HOP92 cells assessed as cell growth at 0.03 uM incubated for 48 hrs by sulforhodamine B assay relative to control. Conditions: HOP-92, 48 h, read-out: Activity.
Assay [12] deals with HCT-15. Kind of assay: Growth inhibition of human HCT15 cells assessed as cell growth at 0.3 uM incubated for 48 hrs by sulforhodamine B assay relative to control. Conditions: HCT-15, 48 h, read-out: Activity.
Assay [13] has as its system OVCAR-5. Kind of assay: Growth inhibition of human OVCAR5 cells assessed as cell growth at 0.03 uM incubated for 48 hrs by sulforhodamine B assay relative to control. Conditions: OVCAR-5, 48 h, read-out: Activity.
Assay [14] deals with RXF 393. Kind of assay: Growth inhibition of human RXF393 cells assessed as cell growth at 30 uM incubated for 48 hrs by sulforhodamine B assay relative to control. Conditions: RXF 393, 48 h, read-out: Activity.
For assay [15], the system named is MDA-MB-435. The experiment in a line: Growth inhibition of human MDA-MB-435 cells assessed as cell growth at 0.003 uM incubated for 48 hrs by sulforhodamine B assay relative to control. The note with it: MDA-MB-435, 48 h, read-out: Activity.
The test system of the next assay is RPMI-8226. The experiment in a line: Growth inhibition of human RPMI8226 cells assessed as cell growth at 0.003 uM incubated for 48 hrs by sulforhodamine B assay relative to control. The note with it: RPMI-8226, 48 h, read-out: Activity.
The next assay concerns U-251. Kind of assay: Growth inhibition of human U251 cells assessed as cell growth at 0.003 uM incubated for 48 hrs by sulforhodamine B assay relative to control. Conditions: U-251, 48 h, read-out: Activity.
For a further assay, the system named is A549. The experiment in a line: Growth inhibition of human A549/ATCC cells assessed as cell growth at 3 uM incubated for 48 hrs by sulforhodamine B assay relative to control. Conditions: A549, 48 h, read-out: Activity.
Assay [16] deals with SF-539. Kind of assay: Growth inhibition of human SF539 cells assessed as cell growth at 0.03 uM incubated for 48 hrs by sulforhodamine B assay relative to control. Conditions: SF-539, 48 h, read-out: Activity.

For the molecule `COc1cc2cc(Oc3ccc(NC(=O)Nc4cc(C(F)(F)F)cc(C(F)(F)F)c4)cc3)c(C)nc2cc1OC`, the growth at 100 µM is -63% with MDA-MB-435 [1], -52% with NCI-H226 and -78% in the assay with OVCAR-5 [8]. Besides, the growth at 0.1 µM in the assay with SN12C was found to be 100%; in the assay on NCI-H460 it was 107%. Further, the growth at 10 µM in the assay with SNB-19 was -79%; with NCI-H322M [4], -85%; with SNB-75 [5], -32%; in the assay with SK-MEL-5 it was -79%; in the assay with NCI-H522 it was -71%. The growth at 1 µM is 75% with SNB-75 [2], 82% in the assay on DU-145, 107% in the assay with UACC-257 and 58% with OVCAR-4. In addition, the growth at 0.01 µM is 94% in the assay on ACHN, 97% in the assay with CCRF-CEM [3], 92% in the assay with SF-539 [6] and 93% in the assay with HCT-15 [7].
`Cc1nc2cc(O)c(O)cc2cc1Oc1ccc(NC(=O)Nc2ccc(Cl)c(Cl)c2)cc1`: the growth at 0.3 µM was found to be 110% in the assay on NCI-H322M [9], 94% with NCI-H23, 103% in the assay with RXF 393 [11] and 101% in the assay with HCT-15 [12]. Besides, the growth at 30 µM in the assay on OVCAR-8 was 1%; in the assay on CCRF-CEM [10], -16%; in the assay with M14 it was -51%; with SR it was -20%; with RXF 393 [14] it was 7%. Besides, the growth at 0.03 µM in the assay with HOP-92 is 80%; in the assay with OVCAR-5 [13], 100%; in the assay with SF-539 [16], 105%. The growth at 0.003 µM came out at 94% in the assay on MDA-MB-435 [15], 93% with RPMI-8226 and 95% with U-251. In the assay with A549, the growth at 3 µM was 98%.
As to `COc1cc2cc(Oc3ccc(NC(=O)Nc4ccc(Cl)c(Cl)c4)cc3)c(C)nc2cc1OC`, the growth at 100 µM was -45% in the assay with MDA-MB-435 [1], -85% in the assay with NCI-H226 and -44% in the assay on OVCAR-5 [8]. In addition, the growth at 0.1 µM is 95% in the assay on SN12C and 103% in the assay with NCI-H460. Moreover, the growth at 10 µM in the assay with SNB-19 is 25%; with NCI-H322M [4], 47%; with SNB-75 [5], -7%; in the assay with SK-MEL-5, -9%; with NCI-H522 it was -5%. For the same molecule, the growth at 1 µM in the assay with SNB-75 [2] was 83%; with DU-145 it was 102%; in the assay with UACC-257, 92%; in the assay with OVCAR-4 it was 93%. The growth at 0.01 µM with ACHN worked out at 101%; with CCRF-CEM [3], 102%; in the assay on SF-539 [6], 101%; in the assay on HCT-15 [7] it was 100%.
On to `COc1cc2cc(Oc3ccc(NC(=O)Nc4ccc(Cl)c(C(F)(F)F)c4)cc3)c(C)nc2cc1OC`, for which the growth at 0.3 µM was determined as 112% in the assay on NCI-H322M [9], 92% in the assay with NCI-H23, 113% in the assay on RXF 393 [11] and 91% in the assay on HCT-15 [12]. Also, the growth at 30 µM in the assay on OVCAR-8 was -32%; with CCRF-CEM [10] it was -38%; in the assay with M14 it was -70%; in the assay with SR, -43%; with RXF 393 [14] it was -80%. The growth at 0.03 µM with HOP-92 came out at 89%; with OVCAR-5 [13], 102%; in the assay with SF-539 [16], 100%. Moreover, the growth at 0.003 µM with MDA-MB-435 [15] was 98%; in the assay on RPMI-8226, 100%; in the assay on U-251, 97%. In the assay on A549, the growth at 3 µM worked out at 10%.

Values taken from ChEMBL document CHEMBL3994622, “Design and synthesis of new RAF kinase-inhibiting antiproliferative quinoline derivatives. Part 2: Diarylurea derivatives” (Eur J Med Chem, 2017).
